“And” between values parts separate entries of the source, which are not always exact repeats. Equal entries are not always repeated. Inconclusive results and toxic doses are left out. The calls were made as follows: active = survival T/C of 150% or more; inactive = T/C below 125% in these data.
System: P388 leukemia ip, CD2F1 mice, survival T/C
Assay: NCI In Vivo Anticancer Drug Screen. Data for tumor model P388 Leukemia (intraperitoneal) in CD2F1 (CDF1) mice
Settings: endpoint: median survival time, higher = longer survival
In short: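 Mice carrying the transplanted tumor received test compound or vehicle. Survival was recorded in each group, and the value is the treated-group measurement divided by that of the vehicle-treated control group.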

[1] = dose: 100.0 mg/kg/injection, schedule: Q04DX002 (ip), vehicle: Klucel (hydroxypropylcellulose) (HPC)
[2] = dose: 200.0 mg/kg/injection, schedule: Q04DX002 (ip), vehicle: Klucel (hydroxypropylcellulose) (HPC)
[3] = dose: 400.0 mg/kg/injection, schedule: Q04DX002 (ip), vehicle: Klucel (hydroxypropylcellulose) (HPC)
[4] = dose: 16.0 mg/kg/injection, schedule: Q01DX009 (ip), vehicle: distilled water + Tween-80
[5] = dose: 32.0 mg/kg/injection, schedule: Q01DX009 (ip), vehicle: distilled water + Tween-80
[6] = dose: 60.0 mg/kg/injection, schedule: Q01DX005 (ip), vehicle: saline with Tween-80
[7] = dose: 120.0 mg/kg/injection, schedule: Q01DX005 (ip), vehicle: saline with Tween-80

Measured: T/C

COc1ccc(C2=C(Cl)C(=O)N(c3ccccc3)C(=O)C2(Cl)Cl)cc1
inactive: [1] 103 % of control | [2] 107 % of control | [3] 107 % of control

C/C1=C/C(C)C(O)C(O)C(=O)C2(C)CNC3=C(O2)C(=O)c2c(cc(C)c(O)c2C1=O)C3=O (stereo unspecified)
inactive: dose: 0.5 mg/kg/injection, schedule: Q01DX009 (ip), vehicle: distilled water + Tween-80 102 % of control and 122 % of control | dose: 1.0 mg/kg/injection, schedule: Q01DX009 (ip), vehicle: distilled water + Tween-80 106 % of control and 117 % of control | dose: 2.0 mg/kg/injection, schedule: Q01DX009 (ip), vehicle: distilled water + Tween-80 108 % of control | dose: 4.0 mg/kg/injection, schedule: Q01DX009 (ip), vehicle: distilled water + Tween-80 102 % of control and 103 % of control | [4] 103 % of control and 107 % of control | [5] 101 % of control and 103 % of control | dose: 4.0 micrograms/kg/injection, schedule: Q01DX009 (ip), vehicle: water 115 % of control | dose: 8.0 micrograms/kg/injection, schedule: Q01DX009 (ip), vehicle: water 99 % of control | dose: 16.0 micrograms/kg/injection, schedule: Q01DX009 (ip), vehicle: water 98 % of control | dose: 32.0 micrograms/kg/injection, schedule: Q01DX009 (ip), vehicle: water 99 % of control | dose: 64.0 micrograms/kg/injection, schedule: Q01DX009 (ip), vehicle: saline + alcohol 100 % of control | dose: 64.0 micrograms/kg/injection, schedule: Q01DX009 (ip), vehicle: water 102 % of control | dose: 128.0 micrograms/kg/injection, schedule: Q01DX009 (ip), vehicle: saline + alcohol 100 % of control | dose: 256.0 micrograms/kg/injection, schedule: Q01DX009 (ip), vehicle: saline + alcohol 103 % of control

CCCCCCCCCCCC(=O)NCCCCCC(=O)NC1C(C)OC(Nc2ncnc3nc[nH]c23)C(O)C1O (stereo unspecified)
inactive: dose: 0.5 mg/kg/injection, schedule: Q01DX009 (ip), vehicle: water 99 % of control | dose: 1.0 mg/kg/injection, schedule: Q01DX009 (ip), vehicle: water 99 % of control | dose: 2.0 mg/kg/injection, schedule: Q01DX009 (ip), vehicle: water 115 % of control | dose: 4.0 mg/kg/injection, schedule: Q01DX009 (ip), vehicle: water 115 % of control | dose: 8.0 mg/kg/injection, schedule: Q01DX009 (ip), vehicle: distilled water + Tween-80 87 % of control | dose: 8.0 mg/kg/injection, schedule: Q01DX009 (ip), vehicle: water 117 % of control | [4] 89 % of control | [5] 114 % of control | dose: 64.0 mg/kg/injection, schedule: Q01DX009 (ip), vehicle: distilled water + Tween-80 123 % of control

CCN(CC)C(=O)C(C)C1=C(C)C(N(CC)CC)=NS(=O)(=O)c2ccccc21 (stereo unspecified)
inactive: [1] 102 % of control | [2] 90 % of control | [3] 109 % of control

C/C1=C\C(=O)OCC23CCC4(C)OC4C2OC2CC(OC(=O)/C=C/C=C/C(C(C)O)OCC1O)C3(C)C21CO1 (stereo unspecified)
active: dose: 10.0 mg/kg/injection, schedule: Q01DX005 (ip), vehicle: saline + alcohol 150 % of control | dose: 20.0 mg/kg/injection, schedule: Q01DX005 (ip), vehicle: saline + alcohol 159 % of control
inactive: dose: 1.25 mg/kg/injection, schedule: Q01DX005 (ip), vehicle: saline + alcohol 121 % of control and 123 % of control | dose: 5.0 mg/kg/injection, schedule: Q01DX005 (ip), vehicle: saline + alcohol 124 % of control

CCCCC1CN1C(=N)OCC (stereo unspecified)
inactive: dose: 15.0 mg/kg/injection, schedule: Q01DX005 (ip), vehicle: saline with Tween-80 100 % of control | dose: 25.0 mg/kg/injection, schedule: Q01DX005 (ip), vehicle: saline 100 % of control | dose: 30.0 mg/kg/injection, schedule: Q01DX005 (ip), vehicle: saline with Tween-80 96 % of control | [6] 101 % of control and 95 % of control

CCCOC(=O)C1(CCl)CCC(=O)O1 (stereo unspecified)
inactive: dose: 50.0 mg/kg/injection, schedule: Q01DX009 (ip), vehicle: Klucel (hydroxypropylcellulose) (HPC) 101 % of control | dose: 100.0 mg/kg/injection, schedule: Q01DX009 (ip), vehicle: Klucel (hydroxypropylcellulose) (HPC) 103 % of control | dose: 200.0 mg/kg/injection, schedule: Q01DX009 (ip), vehicle: Klucel (hydroxypropylcellulose) (HPC) 103 % of control

CC(=N\NC(N)=S)/C(C)=N/Nc1ccccc1
inactive: dose: 100.0 mg/kg/injection, schedule: Q04DX003 (ip), vehicle: Klucel (hydroxypropylcellulose) (HPC) 106 % of control | dose: 200.0 mg/kg/injection, schedule: Q04DX003 (ip), vehicle: Klucel (hydroxypropylcellulose) (HPC) 100 % of control | dose: 400.0 mg/kg/injection, schedule: Q04DX003 (ip), vehicle: Klucel (hydroxypropylcellulose) (HPC) 100 % of control

c1ccc(-c2ccc(NCCN3CCOCC3)nn2)cc1
inactive: dose: 60.0 mg/kg/injection, schedule: Q01DX005 (ip), vehicle: Klucel (hydroxypropylcellulose) (HPC) 100 % of control | dose: 120.0 mg/kg/injection, schedule: Q01DX005 (ip), vehicle: Klucel (hydroxypropylcellulose) (HPC) 105 % of control

COC(=O)c1nc(N)nc(C(=O)OC)c1C(=O)c1ccc([N+](=O)[O-])cc1
inactive: [6] 105 % of control | [7] 97 % of control

CC(C)(S)CN
inactive: dose: 100.0 mg/kg/injection, schedule: Q01DX001 (ip), vehicle: saline 104 % of control | dose: 200.0 mg/kg/injection, schedule: Q01DX001 (ip), vehicle: saline 108 % of control | dose: 400.0 mg/kg/injection, schedule: Q01DX001 (ip), vehicle: saline 103 % of control

O=C(N/C(=C\c1ccccc1Cl)c1nc2ccccc2s1)c1ccccc1
inactive: [6] 113 % of control | [7] 113 % of control | dose: 240.0 mg/kg/injection, schedule: Q01DX005 (ip), vehicle: saline with Tween-80 102 % of control

CCOC(=O)CCc1cnc[nH]1
inactive: dose: 60.0 mg/kg/injection, schedule: Q01DX005 (ip), vehicle: saline 108 % of control | dose: 120.0 mg/kg/injection, schedule: Q01DX005 (ip), vehicle: saline 106 % of control | dose: 240.0 mg/kg/injection, schedule: Q01DX005 (ip), vehicle: saline 98 % of control

Source: PubChem BioAssay AID330 (DTP/NCI, 2004)
